Data set [1] has as its system Jurkat cells. Description: apoptosis of Jurkat cells by FACS analysis of DNA content. In kind it is cell-based. Conditions: 50 or 300 nM, 6 hours. The procedure: FIG. 28(B): A549 cells were fixed and costained using antibodies directed against ceramide (red channel) (Bars in A/B=[…]). Arrows indicate regions of “blebbing.” The nuclear compartment was visualized using DAPI to stain DNA (blue channel). The assessments were performed two hours after treatment with 300 nM ScA. FIG. 28(C): Immunoblot analysis of Jurkat cells was performed following treatment with 100 nM ScA. 25 μg of cell lysates was probed for caspases 8, 3 and 9 and for PARP and actin (loading control) as indicated. FIG. 28(D): Caspase 8 deficient (Casp 8), FADD deficient (FADD −) or parental Jurkat cells (Jurkat) were incubated with 50 or 300 nM for 6 hours and analyzed for the presence of apoptotic cells via FACs analysis of DNA content. Results shown are the mean and standard error of triplicate determinations. […] Viability was measured by XTT assay after 72 hours, and normalized to controls not treated with drug. FIG. 28(F): similarly, the viability of neuroblastoma cultures deficient in caspase expression, or reconstituted for caspase 8 expression, was determined as for the A549 cells above. […]
FACS analysis Cell viability was analyzed by flow cytometry following propidium iodide (PI) staining, as described elsewhere (37). […] The extent of apoptosis was determined by plotting PI fluorescence versus the forward scatter parameter, using CELL QUEST™ software.
(In general: Flow cytometry measures light scatter and fluorescence of single cells or particles in a stream.)

Data set [2] in a line: partition from liquid phase into 100 nanometer liposomes (nanosomes). Format: physicochemical. The procedure:
Preparation of Liposomes. Cholesterol:Dope:Dspc:Sca:Dspe-Mpeg (in 1:1:1:0.16:0.16 molar ratio) in chloroform were taken in 30 mL glass culture tubes, dried under a stream of nitrogen gas and vacuum-dessicated for a minimum of 6 h to remove any residual organic solvent. The dried lipid film was hydrated in sterile deionized water in a total volume of 1 mL for a minimum of 12 h. Liposomes were vortexed for 2-3 minutes to remove any adhering lipid film and sonicated in a bath sonicator (ULTRASONIK 28X™) for 2-3 minutes at room temperature to produce multilamellar vesicles (MLV). MLVs were then sonicated with a Ti-probe (using a BRANSON450™ sonifier at 100% duty cycle and 25 W output power) in an ice bath for 1-2 minutes to produce small unilamellar vesicles (SUVs) as indicated by the formation of a clear translucent solution. The solution was pressure filtered in sequence though 200 and then 100 nm nucelopore polycarbonate membranes to obtain liposome nanoparticles of 100 nm with a polydispersity factor of less than 0.1.

Data set [3] in a line: chemical stability. Format: physicochemical.
A short description of data set [4]: solubility in aqueous media. In kind it is physicochemical.

Structures are written as SMILES.

As for `C=CC/C=C/N(C)C(=O)CCCCCCCC/C=C/[C@H](CSSC[C@@H](/C=C/CCCCCCCCC(=O)N(C)/C=C/CC=C)NC(C)=O)NC(C)=O` [somocystinamide A, Somocystinamide A], the ScA-mediated killing entry in data set [1] (Jurkat cells lacking FADD) is on record as “protected from ScA-mediated killing”. Further, in data set [1] (caspase 8-deficient Jurkat cells compared to wild type), the apoptosis result is listed as “dramatically decreased”. The “interchelation of ScA within the nanosomes” value in data set [2] is recorded as “essentially complete within thirty minutes”. The storage stability result in data set [3] (apart from hydrolytic degradation of the unsaturated amide) is “otherwise quite stable”. Also, the acid sensitivity result in data set [3] (converts to compound 2) is listed as “highly acid-sensitive”. Further, the solubility result in data set [4] is “limited solubility”.

These data come from patent US9045401B2, “Methods for treating or ameliorating a melanoma and killing melanoma cells” (THE REGENTS OF THE UNIVERSITY OF CALIFORNIA, priority 2007, dated 2015).
